According to patent publication US20260085087A1, “CHEMICAL COMPOUND COMPRISING A TRIAZINE GROUP AND METHOD FOR PRODUCING SAME” (priority 2020, published 2026):
[TzD] = triazinylamidophosphate internucleotide linkage carrying two dodecyl amine moieties; {FAM} = fluorescein (FAM) label

Assays:
[1] = tested on: HEK293T cells; experiment: HEK293T cell transfection efficiency by flow cytofluorometry; assay type: cell-based, human; details: 4 hours
Experimental: (§1) To study cell penetration efficiency, oligonucleotide 5′-[FAM]-CTGACTATGAAGTAT*T-3′ (OSN4F) was used, wherein * is a position of thiazinylamidophosphate unit carrying two dodecyl moieties, and control unmodified oligonucleotide 5′-[FAM]-CTGACTATGAAGTATT-3′ (OSNF).
(§2) Cultured HEK293T and T98G human cells were plated onto the wells of a 24-well microplate in a concentration 20×10^4 cells/well (HEK293T) or 12×10^4 cells/well (T98G) in 500 μl/well IMDM media comprising 10% FBS and 1% solution of antibiotic and antimycotic agents (10 mg/ml streptomycin, 10,000 U/ml penicillin, and 25 mg/ml amphotericin (IMP Biomedicals, Germany) (hereinafter, the complete medium), and incubated for 18 hrs to provide cell attachment. Furthermore, cell medium was replaced with 200 μl/well IMDM medium in the absence of serum and antibiotic agents. Oligonucleotides (OSNF, OSN4F) were dissolved in Opti-MEM and added to the cells until the final concentration of 1 or 5 μM (50 μl/well) was achieved. […] The cells were analyzed on a flow cytometer NovoCyte 3000 (ACEA Biosciences, USA). […] Oligonucleotide penetration efficiency was characterized by two indicators: % of fluorescent cells in a population and average intensity of cell fluorescence in a sample, which were measured using flow cytometry in 4 hours after transfection. […] RFU means relative fluorescence units, LF means Lipofectamine 2000. […]

[2] = tested on: T98G cells; experiment: T98G cell transfection efficiency by flow cytofluorometry; assay type: cell-based, human; details: 4 hours
Experimental: as §1, §2

[3] = tested on: HEK293T cells; experiment: Confocal microscopy of penetration into human cells; assay type: cell-based; details: 1 μM, 4 hours, no serum
Experimental: In this study, oligonucleotide 5′-[FAM]-CTGACTATGAAGTAT*T-3′ (OSN4F) was used, wherein * is a position of triazinylamidophosphate unit having two dodecyl moieties.
Cultured human cells HEK293T were plated on slides placed to the wells of the 24-well microplate, in a concentration of 6×10^4 cells/well in a complete IMDM medium and incubated at 37° C. in 5% CO2 for 12 to 18 hours to provide cell attachment. Then, the medium was replaced to IMDM, in the absence of serum and antibiotic agent, which comprises OSN4F at a concentration of 1 μM. The cells were incubated in the presence of oligonucleotide at 37° C. in 5% CO2 for 4 hours. […]
Intracellular location of oligonucleotide OSN4F was studied using confocal microscope LSM710 (Zeiss, Germany) with the plan-apochromat 63×/1.40 Oil DIC M27 (Zeiss, Germany) lens and two channels, blue and green. Fluorescence in a blue channel at exciting laser wavelength of 405 nm corresponded to NucBlue (cell nuclei staining); green channel at exciting laser wavelength of 488 nm corresponded to fluorescence of oligonucleotide OSN4F labelled with a 6-carboxyfluorescein moiety.

[4] = tested on: HEK293T cells; experiment: Comparison of cell penetration efficiency of oligonucleotides with lipophilic moieties in various modification backbones; assay type: cell-based, human; details: 4 hours after transfection
Experimental: Cultured HEK293T and T98G human cells were plated onto the wells of a 24-well microplate in a concentration 20×10^4 cells/well (HEK293T) or 12×10^4 cells/well (T98G) in 500 μl/well IMDM media comprising 10% FBS and 1% solution of antibiotic and antimycotic agents (10 mg/ml streptomycin, 10,000 U/ml penicillin, and 25 mg/ml amphotericin (IMP Biomedicals, Germany) (hereinafter, the complete medium), and incubated for 18 hrs to provide cell attachment. Furthermore, cell medium was replaced with 200 μl/well IMDM medium in the absence of serum and antibiotic agents. Oligonucleotides (OSNF, OSN4F) were dissolved in Opti-MEM and added to the cells until the final concentration of 1 or 5 μM (50 μl/well) was achieved. […] The cells were analyzed on a flow cytometer NovoCyte 3000 (ACEA Biosciences, USA). […] Oligonucleotide penetration efficiency was characterized by two indicators: % of fluorescent cells in a population and average intensity of cell fluorescence in a sample, which were measured using flow cytometry in 4 hours after transfection. Histograms A and C show % of fluorescent cells, histograms B and D show average fluorescence intensity. RFU means relative fluorescence units, LF means Lipofectamine 2000. […]
Cell fluorescence percent (left) and average fluorescence intensity (right) were measured using flow cytometry in 4 hours after transfection. […]

5′-[FAM]-CTGACTATGAAGTAT*T-3′ (CTGACTATGAAGTATT; DNA, linkages o14 [TzD]1 (s phosphorothioate, o phosphodiester), 5' {FAM}, methylation of C not given here) [OSN4F, * is a triazinylamidophosphate unit carrying two dodecyl moieties]
penetration efficiency (number of transfected cells and fluorescence intensity) ([1]; 1 or 5 μM, no additional transfection agent): efficiently penetrates the HEK293T cells | penetration efficiency relative to control OSNF with Lipofectamine 2000 ([1]; OSN4F without transfection agent): comparable | penetration efficiency relative to control oligonucleotide ([2]; 1 or 5 μM, no additional transfectants): penetrates the T98G cells more efficiently than the control oligonucleotide | penetration efficiency in T98G relative to HEK293T cells [2]: reduced relative to the HEK293K kidney cells | intracellular location [3]: positioning in the cytoplasm and various cell compartments | penetration rate (cell fluorescence percent) relative to PGO, PN, ODF ([4]; 1 μM): significantly higher than in other oligonucleotides used | average fluorescence intensity relative to other oligonucleotides [4]: penetrates cells in larger amounts than other oligonucleotides
